# From ChEMBL document CHEMBL1154198, “Chemical genetics of Plasmodium falciparum” (Nature, 2010)
# What was measured:
# Plasmodium falciparum [1] = assay: ST_JUDE: Plasmodium falciparum 3D7 EC50 (uM) as measured by SYBR green dye; assay type: functional, organism-based
# Plasmodium falciparum [2] = assay: ST_JUDE: Plasmodium falciparum K1 EC50 (uM) as measured by SYBR green dye; assay type: functional, organism-based
Structure (SMILES),EC50 (Plasmodium falciparum [1]),EC50 (Plasmodium falciparum [2])
Oc1ccc(C(c2ccc(O)cc2)C(Cl)(Cl)Cl)cc1,3.95 µM,3.6 µM
CC(=O)Nc1ccc(Nc2c3ccccc3nc3ccccc23)cc1,2.69 µM,1.37 µM
CCCCCOc1ccc(NC2=C(N3CCCC3)C(=O)c3ccccc3C2=O)cc1,> 15 µM,1.92 µM
CCCCOc1ccc(N2C(N)=NC(N)=NC2(C)C)cc1,2.79 µM,> 15 µM
COc1ccc(-c2nonc2NC(=O)c2ccc(C(C)(C)C)cc2)cc1OC,1.06 µM,1.17 µM
Cc1ccc(C2CC(c3cccs3)=NN2C(=O)c2ccc(Br)o2)cc1 (centres undefined),0.532 µM,> 15 µM
Nc1ccc(-c2nc3cc(Cc4ccc5[nH]c(-c6ccc(N)cc6)nc5c4)ccc3[nH]2)cc1,1.08 µM,1.13 µM
CC(=O)N(C)C1=C(N2CCOCC2)C(=O)c2ccccc2C1=O,2.72 µM,4.78 µM
COc1ccc2nc(C)cc(Nc3cccc(Cl)c3)c2c1,1.24 µM,9.41 µM
Oc1c2c(nc3cc(-c4ccc(Br)cc4)nn13)CCCC2,> 15 µM,0.632 µM
CN1CCN(CCCNC(=O)c2ccc3c(c2)sc2nc(-c4ccccc4)cn23)CC1,4.06 µM,9.15 µM
COc1ccc(CN2CCN(Cc3cc(Br)ccc3O)CC2)cc1OC,4.91 µM,6.31 µM
Cc1nc2c3cc(F)ccc3n(C)c2s1,> 15 µM,> 15 µM
O=C1/C(=C/c2ccc(F)cc2)Oc2c1ccc(O)c2CN1CCCCC1,2.03 µM,0.469 µM
O=Cc1ccc2noc(-c3ccc(Cl)cc3)c2c1,> 15 µM,> 15 µM
COc1ccc(C2C(C(=O)Nc3ccc(OC)cc3OC)c3ccccc3C(=O)N2C)cc1 (centres undefined),4.16 µM,4.82 µM
Cc1cc(O)nc(-n2nc(C)cc2NC(=O)c2cccc(C(F)(F)F)c2)n1,> 15 µM,1.5 µM
CC(C)(C)c1ccc2c(c1)CN(Cc1ccccc1)CO2,0.239 µM,0.0523 µM
CCCCn1c(N)c(C#N)c2nc3ccccc3nc21,1.52 µM,6.01 µM
Cc1cc(C)c2sc(N(Cc3cccnc3)C(=O)c3ccc(C#N)cc3)nc2c1,5.77 µM,3.94 µM
O=C(Nc1ccc(F)c(F)c1)c1ccc(=O)n(Cc2cccc([N+](=O)[O-])c2)c1,> 15 µM,> 15 µM
CCOc1ccc(NC2=C/C(=N/S(=O)(=O)c3ccc(OC)cc3)c3ccccc3C2=O)cc1,0.352 µM,0.155 µM

Structure (SMILES),EC50 (Plasmodium falciparum [1]),EC50 (Plasmodium falciparum [2])
COc1ccc(C2CC(=O)C3=C(C2)NC(=O)CC3c2ccc(O)cc2)cc1OC (centres undefined),1.66 µM,0.977 µM
COc1ccc(Cl)c2sc(N(Cc3cccnc3)C(=O)c3ccc(C(C)=O)cc3)nc12,4.06 µM,3.86 µM
Cc1ccc(Nc2cc(C)nc(Nc3ccc(NS(=O)(=O)c4ccc(F)cc4)cc3)n2)cc1,0.746 µM,7.04 µM
O=C(CC1N=C2c3ccccc3N=C(SCc3cccc(F)c3)N2C1=O)NCc1ccco1 (centres undefined),2.31 µM,2.01 µM
CCCCNC(=S)NCCc1c(C)[nH]c2ccccc12,> 15 µM,> 15 µM
COc1ccc(N2CCN(C(CNC(=O)CC(C)(C)C)c3ccc4c(c3)OCO4)CC2)cc1 (centres undefined),4.28 µM,2.01 µM
O=C(CN(Cc1ccc(Cl)cc1)S(=O)(=O)c1ccccc1)N1CCN(c2ccccc2F)CC1,2.91 µM,2.13 µM
CCN(CC)c1cc(C)c2cc(NC(=O)c3cccc(OC)c3)ccc2n1,4.77 µM,> 15 µM
CCC1CCCCN1S(=O)(=O)c1ccc(C(=O)NNc2nc3c(C)cccc3s2)cc1 (centres undefined),> 15 µM,> 15 µM
CCOC(=O)N1CCC(NC(=O)Nc2cc(C(F)(F)F)cc(C(F)(F)F)c2)CC1,0.992 µM,1.29 µM
CCOc1cc(/C=C/c2ccc3cccc(O)c3n2)ccc1O,> 15 µM,> 15 µM
COc1ccc(C2NCCc3c2[nH]c2ccccc32)cc1CN1CCN(c2ccc([N+](=O)[O-])cc2)CC1 (centres undefined),3.65 µM,3.81 µM
CCS(=O)(=O)c1ccccc1C(=O)Nc1nc(-c2ccccn2)cs1,6.53 µM,5.14 µM
Cc1ccc(N(CC(=O)NCCSc2ccc(Cl)cc2)S(=O)(=O)c2ccc(F)cc2)cc1,> 15 µM,> 15 µM
CC(C)(C)c1ccc(C(=O)Nc2nc3c(s2)CN(Cc2ccccc2)CC3)cc1,> 15 µM,> 15 µM
CCCOC(=O)c1cccc(NC(=O)C23CCC(C)(C(=O)O2)C3(C)C)c1 (centres undefined),> 15 µM,> 15 µM
COc1ccc(Nc2cc(C)nc(Nc3ccc(NS(=O)(=O)c4cccc(Cl)c4)cc3)n2)cc1,2.39 µM,> 15 µM
O=C(Nc1ccc(F)c(Cl)c1)Nc1ccc(Cl)c(Cl)c1,5.41 µM,1.63 µM
CCOC(=O)c1cc(NC(=O)CSc2nc3ccccc3[nH]2)ccc1Cl,2.17 µM,3.22 µM
COc1ccc(O)c(CN2CCN(Cc3ccc(C)cc3)CC2)c1,1.62 µM,0.988 µM
COc1ccc(CCNC(=S)Nc2ccccc2SC)cc1OC,5.2 µM,4.3 µM
CCOc1ccc2nc(C)cc(Nc3ccc4c(c3)OCCO4)c2c1,> 15 µM,9.41 µM

Structure (SMILES),EC50 (Plasmodium falciparum [1]),EC50 (Plasmodium falciparum [2])
CCCCc1ccc2nc(C)c(CN3CCC(C)CC3)c(O)c2c1,> 15 µM,> 15 µM
CCOc1cc(C2Nc3cccc4cccc(c34)N2)ccc1O,> 15 µM,> 15 µM
CSc1ccccc1C(=O)Nc1nc(-c2ccccn2)cs1,6.82 µM,2.04 µM
C=CC[n+]1c(/C=C2\C=CC=CN2CC)ccc2cc(C)ccc21,2.56 µM,2.53 µM
C#CC[n+]1ccn2cccc2c1C,1.08 µM,0.607 µM
CCOCCCNC(=O)c1cc2c(-c3cccc(OC)c3)nn(C)c2s1,> 15 µM,> 15 µM
C=C(C)CNc1nncc(-c2ccccc2C)n1,> 15 µM,> 15 µM
Cc1cc(C)c2ccc(N)nc2c1O,3.86 µM,4.81 µM
CCCCOC(=O)c1c(N)n(-c2ccccc2OC)c2nc3ccccc3nc12,3.83 µM,> 15 µM
Cc1cccc(NC2=C(N3CCCCC3)C(=O)c3ccccc3C2=O)c1,0.0527 µM,0.181 µM
C=CCOc1cccc(C(Nc2cc(C)ccn2)c2ccc3cccnc3c2O)c1 (centres undefined),3.17 µM,4.09 µM
CCCC(=O)NC(c1ccc(C(C)C)cc1)c1cc(Cl)c2cccnc2c1O (centres undefined),> 15 µM,> 15 µM
CCOC(=O)c1ccc2nc(C)cc(Nc3ccc(C)c(Cl)c3)c2c1,1.9 µM,> 15 µM
COc1cc(/C=C2/C(=O)NC(=O)N(c3ccc(Cl)cc3)C2=O)cc(Br)c1OC,> 15 µM,> 15 µM
CCCN1C(=O)c2[nH]nc(-c3c(C)cc(C)cc3O)c2C1c1ccc(OC)cc1 (centres undefined),3.36 µM,2.02 µM
Cc1ccc(NC(=O)C2c3ccccc3C(=O)N(C3CCCC3)C2c2cccs2)cc1 (centres undefined),> 15 µM,1.44 µM
C=C(C)CCC(C)N1CCC(n2nccc2NC(=O)Nc2ccccc2Cl)CC1 (centres undefined),3.7 µM,> 15 µM
O=C(NCCN1CCC(Cc2ccccc2)CC1)c1cc(-c2cccnc2)nc2ccccc12,1.13 µM,0.942 µM
CCOCC(=O)Nc1cc(C(F)(F)F)ccc1Oc1cccc(Br)c1,0.83 µM,> 15 µM
COc1cccc(-c2nc3cc(NC(=O)c4cccc(Cl)c4Cl)ccc3o2)c1,> 15 µM,> 15 µM
O=C(CSc1nccn1-c1ccc([N+](=O)[O-])cc1)N1CCc2ccccc21,> 15 µM,> 15 µM
CCCCC(O)(c1ccc(Cl)cc1)C(CN1CCOCC1)c1ccc(Cl)cc1 (centres undefined),4.01 µM,1.64 µM

Structure (SMILES),EC50 (Plasmodium falciparum [1]),EC50 (Plasmodium falciparum [2])
CCOC(=O)c1cnc2c(C)cc(C)cc2c1NCc1cccnc1,4.77 µM,6.18 µM
Clc1ccccc1Nc1nc(NCc2ccccc2)c2ccccc2n1,1.54 µM,4.17 µM
CO/C(O)=C1\C(C)=NC2=C(C(=O)CC(c3ccc(OC)c(OC)c3)C2)C1c1cccc(C)c1 (centres undefined),3.69 µM,3.86 µM
O=C(c1cccc(Cl)c1)N(Cc1cccnc1)c1nc2c(F)cccc2s1,> 15 µM,6.68 µM
CCCOc1ccc(-c2nonc2NC(=O)c2cccc(C)c2)cc1OCCC,> 15 µM,1.05 µM
COC(=O)C1C(O)=C2C(=Nc3ccccc3NC2c2ccccc2OC(C)C)CC1C (centres undefined),> 15 µM,> 15 µM
COc1cccc(NC(=O)C2c3ccccc3C(=O)N(C3CCCC3)C2c2cccs2)c1 (centres undefined),0.45 µM,0.474 µM
CCCN(CCC)Cc1c(O)ccc2c(=O)c(Oc3ccc(OC)cc3)c(C(F)(F)F)oc12,> 15 µM,2.95 µM
CCCCN(C)CCNC(=O)c1cc2c(-c3ccccc3F)nn(C)c2s1,1.62 µM,> 15 µM
Cc1ccc2[nH]c(-c3cccc(-c4nc5cc(C)ccc5[nH]4)n3)nc2c1,3.23 µM,7.6 µM
Cc1cc(C)c2nc(NNC(=O)c3ccc(S(=O)(=O)N(C)C)cc3)sc2c1,6.63 µM,4.88 µM
Cc1cccc(C(=O)ONC(=N)Cc2cccc3ccccc23)c1,4.7 µM,2.63 µM
O=C(Nc1ccc(Cl)cc1C(=O)Nc1cccc(C(F)(F)F)c1)c1ccco1,> 15 µM,> 15 µM
COc1ccc(OC)c(C2CC(=O)C3=C(C2)NC(=O)CC3c2ccc([N+](=O)[O-])cc2)c1 (centres undefined),> 15 µM,1.53 µM
CCN(CC)c1cc(C)c2cc(NC(=O)c3cccc(F)c3)ccc2n1,1.99 µM,8.08 µM
CCc1cc2c(=O)c(Oc3ccc(Cl)cc3)coc2cc1OC(C)=O,> 15 µM,> 15 µM
CC(=O)N1CCc2c(sc(NC(=O)c3cc([N+](=O)[O-])ccc3Cl)c2C#N)C1,4.07 µM,1.32 µM
O=C(Nc1ccc(Cl)cc1)Nc1cc(OCC(F)(F)F)cc(OCC(F)(F)F)c1,1.36 µM,0.466 µM
Cc1cccc(C)c1OCC(=O)N(Cc1ccc(C(C)C)cc1)Cc1ccco1,4.79 µM,> 15 µM
CCOc1cc(-c2nc(-c3ccc(OC)cc3)c(-c3ccccc3)[nH]2)ccc1O,1.48 µM,2.25 µM
CCCC(=O)NC(c1ccc(N(CC)CC)cc1)c1cc(Cl)c2cccnc2c1O (centres undefined),0.844 µM,1.14 µM
